Legend:
Type in all cases: in vivo
Digitaria sanguinalis = assay: Glasshouse post-emergence test, visual damage, Table B1-4; details: 14 days after application
Procedure: (§1) Seeds of a variety of test species are sown in standard soil in pots. For each treatment, three replicate pots containing 10-15 plants per one-inch pot were sprayed at the 2-3 leaf stage. Clethodim and Compound (Ic) were each applied at 15, 30, 60 and 120 g ai/ha. The test plants are then grown in a glasshouse under controlled conditions in a glasshouse (at 24/16° C., day/night; 14 hours light; 65% humidity) and watered twice daily. Plants were assessed for visual damage compared to the untreated control 14 days after application (0=0% damage; 100=100% damage).

Setaria viridis = assay: Glasshouse post-emergence test, visual damage, Table B1-5; details: 14 days after application
Procedure: as §1

Lolium multiflorum = assay: Glasshouse post-emergence test, visual damage, Table B1-1
Procedure: as §1, with “Plants were assessed for visual damage compared to the untreated control 14 days after application (0=0% damage; 100=100% damage).” left out

Eleusine indica = assay: Further glasshouse test versus other ACCase-inhibiting herbicides, Table B2-2; details: 21 days after application
Source text: (§2) Further tests were employed to test the efficacy of a compound of Formula I versus other ACCase-inhibiting herbicides. The five main targets were Lolium multiflorum, Eleusine indica, Digitaria insularis, Sorghum halepense and Echinochloa crus-galli. Collectively, the populations contained all the major target-site resistance mutations affecting ACCase herbicides. Two L. multiflorum (LM-NTSR-1 and LM-NTSR-2) and one E. crus-galli (ECG-NTSR-1) populations were characterised exclusively by non-target-site resistance (“NTSR”). The target-site resistant L. multiflorum and E. indication populations were 100% homozygous for different ACCase mutations whilst the D. insularis, S. halepense and E. crus-galli samples contained a mixture of homozygous wild and mutant individuals at different genotypic frequencies. Additional underlying NTSR cannot be ruled out in the populations characterised by target-site resistance.
(§3) Around 50 seeds of each of the 24 weed populations were sown in 12-cm pots containing a mixture of peat and compost in a 1:1 ratio. The pots were watered, fertilised and kept in controlled glasshouse conditions set at 24° C./16 hr day, 18° C. night, 65% relative humidity, and a photon flux density of approximately 250 μmol quanta m^−2 s^−1 for Lolium multiflorum. The E. indica, D. insularis, S. halepense and E. crus-galli plants were kept in a separate glasshouse bay characterised by a 17 H photoperiod of 180 μmol m^−2 s^−1 with temperatures of 25° C. day and 19° C. night and 65% relative humidity. When the plants were at the two to four-leaf stage, they were treated with the various ACCase-inhibiting herbicides at 0, 15, 30, 60, 120 and 240 g ai ha^−1 in a spray cabinet mounted with a single mobile Teejet flat fan nozzle (11002VS) calibrated to deliver 200 L ha^−1 at 200 kPa. The L. multiflorum populations were treated by a compound of Formula Ic, clodinafop-propargyl, pinoxaden, cycloxydim and clethodim and the warm season grass weeds E. indica, D. insularis, S. halepense and E. crus-galli were sprayed with a Compound Ic and the commonly employed haloxyfop-methyl and clethodim. Three replicate pots were used per population. Plants were assessed for visual damage compared to the untreated control 21 days after application (0=0% damage; 100=100% damage).

Sorghum halepense = assay: Further glasshouse test versus other ACCase-inhibiting herbicides, Table B2-4; details: 21 days after application
Source text: as §2, §3

CC#Cc1ccc(C2=C(OC(=O)OC)C3CCC(C3)C2=O)c(OC)c1 (stereo not drawn) [Compound Ic]
visual damage (Digitaria sanguinalis; biotype I1781L (heterozygous), 15 g/ha): 73% | visual damage (Digitaria sanguinalis; biotype I1781L (heterozygous), 30 g/ha): 90% | visual damage (Digitaria sanguinalis; biotype I1781L (heterozygous), 60 g/ha): 100% | visual damage (Digitaria sanguinalis; biotype I1781L (heterozygous), 120 g/ha): 100% | visual damage (Digitaria sanguinalis; biotype Sensitive, 15 g/ha): 90% | visual damage (Digitaria sanguinalis; biotype Sensitive, 30 g/ha): 100% | visual damage (Digitaria sanguinalis; biotype Sensitive, 60 g/ha): 100% | visual damage (Digitaria sanguinalis; biotype Sensitive, 120 g/ha): 100% | visual damage (Setaria viridis; biotype GG2078 (homozygous), 15 g/ha): 50% | visual damage (Setaria viridis; biotype GG2078 (homozygous), 30 g/ha): 73% | visual damage (Setaria viridis; biotype GG2078 (homozygous), 60 g/ha): 98% | visual damage (Setaria viridis; biotype GG2078 (homozygous), 120 g/ha): 98% | visual damage (Setaria viridis; biotype II1781 (homozygous), 15 g/ha): 70% | visual damage (Setaria viridis; biotype II1781 (homozygous), 30 g/ha): 90% | visual damage (Setaria viridis; biotype II1781 (homozygous), 60 g/ha): 98% | visual damage (Setaria viridis; biotype II1781 (homozygous), 120 g/ha): 100% | visual damage (Setaria viridis; biotype LL1781 (homozygous), 15 g/ha): 60% | visual damage (Setaria viridis; biotype LL1781 (homozygous), 30 g/ha): 90% | visual damage (Setaria viridis; biotype LL1781 (homozygous), 60 g/ha): 98% | visual damage (Setaria viridis; biotype LL1781 (homozygous), 120 g/ha): 100% | visual damage (Setaria viridis; biotype Sensitive, 15 g/ha): 87% | visual damage (Setaria viridis; biotype Sensitive, 30 g/ha): 93% | visual damage (Setaria viridis; biotype Sensitive, 60 g/ha): 100% | visual damage (Setaria viridis; biotype Sensitive, 120 g/ha): 100% | visual damage (Lolium multiflorum; biotype CC2027 (homozygous), 15 g/ha, 14 days after application): 100% | visual damage (Lolium multiflorum; biotype CC2027 (homozygous), 30 g/ha, 14 days after application): 100% | visual damage (Lolium multiflorum; biotype CC2027 (homozygous), 60 g/ha, 14 days after application): 100% | visual damage (Lolium multiflorum; biotype CC2027 (homozygous), 120 g/ha, 14 days after application): 100% | visual damage (Lolium multiflorum; biotype GG2078 (homozygous), 15 g/ha, 14 days after application): 40% | visual damage (Lolium multiflorum; biotype GG2078 (homozygous), 30 g/ha, 14 days after application): 100% | visual damage (Lolium multiflorum; biotype GG2078 (homozygous), 60 g/ha, 14 days after application): 100% | visual damage (Lolium multiflorum; biotype GG2078 (homozygous), 120 g/ha, 14 days after application): 100% | visual damage (Lolium multiflorum; biotype LL1781 (homozygous), 15 g/ha, 14 days after application): 100% | visual damage (Lolium multiflorum; biotype LL1781 (homozygous), 30 g/ha, 14 days after application): 100% | visual damage (Lolium multiflorum; biotype LL1781 (homozygous), 60 g/ha, 14 days after application): 100% | visual damage (Lolium multiflorum; biotype LL1781 (homozygous), 120 g/ha, 14 days after application): 100% | visual damage (Lolium multiflorum; biotype NN2041 (homozygous), 15 g/ha, 14 days after application): 47% | visual damage (Lolium multiflorum; biotype NN2041 (homozygous), 30 g/ha, 14 days after application): 100% | visual damage (Lolium multiflorum; biotype NN2041 (homozygous), 60 g/ha, 14 days after application): 100% | visual damage (Lolium multiflorum; biotype NN2041 (homozygous), 120 g/ha, 14 days after application): 100% | visual damage (Lolium multiflorum; biotype RR2088 (homozygous), 15 g/ha, 14 days after application): 100% | visual damage (Lolium multiflorum; biotype RR2088 (homozygous), 30 g/ha, 14 days after application): 100% | visual damage (Lolium multiflorum; biotype RR2088 (homozygous), 60 g/ha, 14 days after application): 100% | visual damage (Lolium multiflorum; biotype RR2088 (homozygous), 120 g/ha, 14 days after application): 100% | visual damage (Lolium multiflorum; biotype SS1999 (homozygous), 15 g/ha, 21 DAA): 85% | visual damage (Lolium multiflorum; biotype SS1999 (homozygous), 30 g/ha, 21 DAA): 100% | visual damage (Lolium multiflorum; biotype SS1999 (homozygous), 60 g/ha, 21 DAA): 100% | visual damage (Lolium multiflorum; biotype SS1999 (homozygous), 120 g/ha, 21 DAA): 100% | visual damage (Lolium multiflorum; biotype Sensitive, 15 g/ha, 14 days after application): 100% | visual damage (Lolium multiflorum; biotype Sensitive, 30 g/ha, 14 days after application): 100% | visual damage (Lolium multiflorum; biotype Sensitive, 60 g/ha, 14 days after application): 100% | visual damage (Lolium multiflorum; biotype Sensitive, 120 g/ha, 14 days after application): 100% | visual damage (Eleusine indica; biotype D2078G, 15 g/ha): 88% | visual damage (Eleusine indica; biotype D2078G, 30 g/ha): 100% | visual damage (Eleusine indica; biotype D2078G, 60 g/ha): 100% | visual damage (Eleusine indica; biotype D2078G, 120 g/ha): 100% | visual damage (Eleusine indica; biotype D2078G, 240 g/ha): 100% | visual damage (Eleusine indica; biotype G2096A, 15 g/ha): 93% | visual damage (Eleusine indica; biotype G2096A, 30 g/ha): 98% | visual damage (Eleusine indica; biotype G2096A, 60 g/ha): 100% | visual damage (Eleusine indica; biotype G2096A, 120 g/ha): 100% | visual damage (Eleusine indica; biotype G2096A, 240 g/ha): 100% | visual damage (Eleusine indica; biotype I2041N, 15 g/ha): 50% | visual damage (Eleusine indica; biotype I2041N, 30 g/ha): 98% | visual damage (Eleusine indica; biotype I2041N, 60 g/ha): 100% | visual damage (Eleusine indica; biotype I2041N, 120 g/ha): 100% | visual damage (Eleusine indica; biotype I2041N, 240 g/ha): 100% | visual damage (Eleusine indica; biotype Sensitive, 15 g/ha): 100% | visual damage (Eleusine indica; biotype Sensitive, 30 g/ha): 100% | visual damage (Eleusine indica; biotype Sensitive, 60 g/ha): 100% | visual damage (Eleusine indica; biotype Sensitive, 120 g/ha): 100% | visual damage (Eleusine indica; biotype Sensitive, 240 g/ha): 100% | visual damage (Eleusine indica; biotype W2027C, 15 g/ha): 100% | visual damage (Eleusine indica; biotype W2027C, 30 g/ha): 100% | visual damage (Eleusine indica; biotype W2027C, 60 g/ha): 100% | visual damage (Eleusine indica; biotype W2027C, 120 g/ha): 100% | visual damage (Eleusine indica; biotype W2027C, 240 g/ha): 100% | visual damage (Sorghum halepense; biotype Sensitive, 15 g/ha): 95% | visual damage (Sorghum halepense; biotype Sensitive, 30 g/ha): 97% | visual damage (Sorghum halepense; biotype Sensitive, 60 g/ha): 100% | visual damage (Sorghum halepense; biotype Sensitive, 120 g/ha): 100% | visual damage (Sorghum halepense; biotype Sensitive, 240 g/ha): 100% | visual damage (Sorghum halepense; biotype W2027C, 15 g/ha): 65% | visual damage (Sorghum halepense; biotype W2027C, 30 g/ha): 80% | visual damage (Sorghum halepense; biotype W2027C, 60 g/ha): 98% | visual damage (Sorghum halepense; biotype W2027C, 120 g/ha): 100% | visual damage (Sorghum halepense; biotype W2027C, 240 g/ha): 100%

Reference: patent US20260215428A1, “WEED CONTROL METHOD” (SYNGENTA CROP PROTECTION AG, priority 2023, published 2026)
